Experimental data published in US10363239B2, “Method for inhibiting growth of cancer cells” (Pain Therapeutics, Inc., priority 2013, dated 2019).
Where two headings read alike, the source gives them in different places.

Assays:
[1] = molecular target: FLNA pentapeptide of SEQ ID NO: 1 (Bn-VAKGL) (Homo sapiens, UniProt P21333); experiment: FITC-NLX-based FLNA screening assay (inhibition of FITC-naloxone binding to Bn-VAKGL on streptavidin plates); conditions: for Percent Binding Inhibition / inhibition at 0.01 µM / inhibition at 0.1 µM / inhibition at 1 µM: 10 nM FITC-NLX; for Binding to FLNA (conclusion in words): preliminary study
mu opiate receptor (MOR) = experiment: MOR agonist activity using [35S]GTPγS binding assay in striatal membranes; format: biochemical; conditions: for MOR agonist activity ([35S]GTPγS binding), FLNA-Binding Compound as Agonist 1 μM + BFNA: 1 μM compound + 1 μM β-funaltrexamine; for MOR agonist activity, FLNA-Binding Compound as Agonist 0.1 μM (preliminary study) / MOR agonist activity, FLNA-Binding Compound as Agonist 1 μM + βNFA (preliminary study) / MOR agonist activity, FLNA-Binding Compound as Agonist 1 μM (preliminary study): average of two runs; for MOR agonist activity (conclusion in words): preliminary study
In short: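 Striatal membranes (200 μg) were preincubated 5 min at 30 °C in HEPES pH 7.5 with 100 mM NaCl, 1 mM MgCl2 and 0.5 nM [35S]GTPγS, then 5 min more with 0.1–10 μM compound. Gαo was immunoprecipitated and bound radioactivity counted by scintillation.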

[2] = 0.1 μM compound relative to DAMGO
[3] = 1 μM compound + BFNA relative to DAMGO + BFNA
[4] = 1 μM compound relative to DAMGO
[5] = FLNA-binding compound 0.01 μM, read-out: Percent Binding Inhibition
[6] = FLNA-binding compound 0.1 μM, read-out: Percent Binding Inhibition
[7] = FLNA-binding compound 1 μM, read-out: Percent Binding Inhibition
[8] = Series C-2, 0.1 μM compound, relative to DAMGO
[9] = Series C-2, 0.1 μM compound, [35S]GTPγS binding to Gαo, striatal membranes
[10] = Series C-2, 1 μM compound + 1 μM β-FNA
[11] = Series C-2, 1 μM compound + β-FNA, relative to DAMGO + BFNA
[12] = Series C-2, 1 μM compound, relative to DAMGO
[13] = Series C-2, 1 μM compound, [35S]GTPγS binding to Gαo, striatal membranes
[14] = read-out: Percent Binding Inhibition, FLNA-binding compound 0.01 μM
[15] = read-out: Percent Binding Inhibition, FLNA-binding compound 0.1 μM
[16] = read-out: Percent Binding Inhibition, FLNA-binding compound 1 μM
[17] = Series C-1, 0.1 μM compound, relative to DAMGO
[18] = Series C-1, 0.1 μM compound, [35S]GTPγS binding to Gαo, striatal membranes
[19] = Series C-1, 1 μM compound + 1 μM β-FNA
[20] = Series C-1, 1 μM compound + β-FNA, relative to DAMGO + BFNA
[21] = Series C-1, 1 μM compound, relative to DAMGO
[22] = Series C-1, 1 μM compound, [35S]GTPγS binding to Gαo, striatal membranes

SMILES | MOR agonist activity ([35S]GTPγS binding), FLNA-Binding Compound as Agonist 0.1 μM (mu opiate receptor (MOR); 0.1 μM compound) [%] | % DAMGO (0.1 μM) (mu opiate receptor (MOR); [2]) [%] | MOR agonist activity ([35S]GTPγS binding), FLNA-Binding Compound as Agonist 1 μM (mu opiate receptor (MOR); 1 μM compound) [%] | MOR agonist activity ([35S]GTPγS binding), FLNA-Binding Compound as Agonist 1 μM + BFNA (mu opiate receptor (MOR)) [%] | % DAMGO + BFNA (mu opiate receptor (MOR); [3]) [%] | % DAMGO (1 μM) (mu opiate receptor (MOR); [4]) [%] | inhibition at 0.01 µM [1, 5] [%] | inhibition at 0.1 µM [1, 6] [%] | inhibition at 1 µM [1, 7] [%] | inhibition at 0.01 µM [1, 14] [%] | inhibition at 0.1 µM [1, 15] [%] | inhibition at 1 µM [1, 16] [%] | also measured
CC1CCC(C(C)C)C(OCC(O)CN2CC(C)OC(C)C2)C1 (stereo not shown) [Compound A3333] | 170.7 | 88.9 | 328.3 | 65.9 | 136.7 | 101.0 | – | – | – | – | – | – | Percent Binding Inhibition ([1]; FLNA-binding compound 0.01 μM): 40.4%; Percent Binding Inhibition ([1]; FLNA-binding compound 0.1 μM): 48.5%; Percent Binding Inhibition ([1]; FLNA-binding compound 1 μM): 54.2%
CC1CCCC(OCC(O)CN2CC(C)OC(C)C2)C1 (stereo not shown) [Compound A0021] | 133.3 | 79.8 | 275.3 | 12.1 | 34.9 | 112.4 | 36.8 | 43.4 | 49.5 | – | – | – | –
O=[N+]([O-])c1ccc(S(=O)(=O)N2CCC3(CC2)NCCO3)cc1 [Compound C0040] | – | – | – | – | – | – | 38.4 | 46.3 | 55.9 | – | – | – | % DAMGO (0.1 μM) (mu opiate receptor (MOR); [8]): 93.1%; MOR agonist activity, percent [35S]GTPγS binding at the stated compound concentration (mu opiate receptor (MOR); [9]): 145.8%; MOR agonist activity, percent [35S]GTPγS binding at the stated compound concentration (mu opiate receptor (MOR); [10]): 90.4%; % DAMGO + BFNA (mu opiate receptor (MOR); [11]): 277.3%; % DAMGO (1 μM) (mu opiate receptor (MOR); [12]): 133.2%; MOR agonist activity, percent [35S]GTPγS binding at the stated compound concentration (mu opiate receptor (MOR); [13]): 308.3%
Cc1ccc(S(=O)(=O)N2CCOC23CCN(CC2CCC2)CC3)cc1 [Compound 9] | – | – | – | – | – | – | – | – | – | – | – | – | Binding to FLNA (conclusion in words) [1]: bind well to FLNA; MOR agonist activity, FLNA-Binding Compound as Agonist 0.1 μM (preliminary study) (mu opiate receptor (MOR)): 156.6%; MOR agonist activity, FLNA-Binding Compound as Agonist 1 μM + βNFA (preliminary study) (mu opiate receptor (MOR)): 56.6%; MOR agonist activity, FLNA-Binding Compound as Agonist 1 μM (preliminary study) (mu opiate receptor (MOR)): 197.2%; MOR agonist activity (conclusion in words) (mu opiate receptor (MOR)): MOR agonists
O=C(c1ccc([N+](=O)[O-])cc1)N1CCC2(CC1)OCCN2C(=O)c1ccc([N+](=O)[O-])cc1 [Compound C0032] | – | – | – | – | – | – | – | – | – | 41.5 | 50.5 | 55.3 | % DAMGO (0.1 μM) (mu opiate receptor (MOR); [17]): 92.8%; Concentration of FLNA-Binding Compound as Agonist 0.1 μM (mu opiate receptor (MOR); [18]): 145.4%; Concentration of FLNA-Binding Compound as Agonist 1 μM + BFNA (mu opiate receptor (MOR); [19]): 80.9%; % DAMGO + BFNA (mu opiate receptor (MOR); [20]): 248.2%; % DAMGO (1 μM) (mu opiate receptor (MOR); [21]): 87.3%; Concentration of FLNA-Binding Compound as Agonist 1 μM (mu opiate receptor (MOR); [22]): 202.0%
CC1CCC(C(C)C)C(OCC(O)CN2CCC2)C1 (stereo not shown) [Compound A0015] | 110.9 | 64.8 | 150.1 | 62.5 | 120.0 | 56.2 | – | – | – | 36.3 | 46.8 | 55 | –
COc1ccc(S(=O)(=O)N2CCOC23CCN(S(=O)(=O)c2ccc(C(C)=O)cc2)CC3)cc1 [Compound C0047] | – | – | – | – | – | – | – | – | – | 30.8 | 35.2 | 41.4 | % DAMGO (0.1 μM) (mu opiate receptor (MOR); [17]): 98.1%; Concentration of FLNA-Binding Compound as Agonist 0.1 μM (mu opiate receptor (MOR); [18]): 142.2%; Concentration of FLNA-Binding Compound as Agonist 1 μM + BFNA (mu opiate receptor (MOR); [19]): 80.1%; % DAMGO + BFNA (mu opiate receptor (MOR); [20]): 182.0%; % DAMGO (1 μM) (mu opiate receptor (MOR); [21]): 88.5%; Concentration of FLNA-Binding Compound as Agonist 1 μM (mu opiate receptor (MOR); [22]): 206.1%
COc1cc(C(=O)CC2c3c(cc4c(c3OC)OCO4)CC[N+]2(C)C)cc(OC)c1OC (stereo not shown) [Compound B0037] | – | – | – | – | – | – | – | – | – | 47.4 | 53 | 52.4 | % DAMGO (0.1 μM) (mu opiate receptor (MOR); Series B, 0.1 μM compound, relative to DAMGO): 76.5%; MOR agonist activity, percent [35S]GTPγS binding at the stated compound concentration (mu opiate receptor (MOR); Series B, 0.1 μM compound, [35S]GTPγS binding to Gαo, striatal membranes): 119.8%; MOR agonist activity, percent [35S]GTPγS binding at the stated compound concentration (mu opiate receptor (MOR); Series B, 1 μM compound + 1 μM β-FNA): 106.2%; % DAMGO + BFNA (mu opiate receptor (MOR); Series B, 1 μM compound + β-FNA, relative to DAMGO + BFNA): 325.8%; % DAMGO (1 μM) (mu opiate receptor (MOR); Series B, 1 μM compound, relative to DAMGO): 80.4%; MOR agonist activity, percent [35S]GTPγS binding at the stated compound concentration (mu opiate receptor (MOR); Series B, 1 μM compound, [35S]GTPγS binding to Gαo, striatal membranes): 186.0%
CC(=O)N1CCSC12CCN(S(=O)(=O)c1ccc([N+](=O)[O-])cc1)CC2 [Compound C0050] | – | – | – | – | – | – | 26.7 | 34.5 | 36.4 | – | – | – | % DAMGO (0.1 μM) (mu opiate receptor (MOR); [8]): 76.1%; MOR agonist activity, percent [35S]GTPγS binding at the stated compound concentration (mu opiate receptor (MOR); [9]): 110.3%; MOR agonist activity, percent [35S]GTPγS binding at the stated compound concentration (mu opiate receptor (MOR); [10]): 59.0%; % DAMGO + BFNA (mu opiate receptor (MOR); [11]): 134.1%; % DAMGO (1 μM) (mu opiate receptor (MOR); [12]): 54.8%; MOR agonist activity, percent [35S]GTPγS binding at the stated compound concentration (mu opiate receptor (MOR); [13]): 127.6%
CC1CCC(C(C)C)C(OCC(O)CN2CCCCCCC2)C1 (stereo not shown) [Compound A0014] | 147.0 | 83.2 | 174.9 | 140.8 | 214.3 | 67.5 | 33.8 | 39.7 | 44.7 | – | – | – | –
OC(COc1ccc(Br)c(F)c1)CN1CCSCC1 (stereo not shown) [Compound A0059] | 99.2 | 63.5 | 129.9 | 85.7 | 214.8 | 56.4 | – | – | – | 27.4 | 36.6 | 38.7 | –
OC(COc1ccc(Br)c(F)c1)CN1CCc2ccccc2C1 (stereo not shown) [Compound A0057] | 124.2 | 79.6 | 192.1 | 44.8 | 112.3 | 83.3 | 29.1 | 37 | 43.4 | – | – | – | –
CC(=O)c1ccc(S(=O)(=O)N2CCOC23CCN(CC(=O)O)CC3)cc1 [Compound C0100M] | – | – | – | – | – | – | 52.2 | 58.2 | 64.5 | – | – | – | % DAMGO (0.1 μM) (mu opiate receptor (MOR); [8]): 103.6%; MOR agonist activity, percent [35S]GTPγS binding at the stated compound concentration (mu opiate receptor (MOR); [9]): 173.6%; MOR agonist activity, percent [35S]GTPγS binding at the stated compound concentration (mu opiate receptor (MOR); [10]): 195.6%; % DAMGO + BFNA (mu opiate receptor (MOR); [11]): 411.8%; % DAMGO (1 μM) (mu opiate receptor (MOR); [12]): 110.6%; MOR agonist activity, percent [35S]GTPγS binding at the stated compound concentration (mu opiate receptor (MOR); [13]): 245.9%
C=CCN1CCC2(CC1)OCCN2S(=O)(=O)c1ccc(C)cc1 [Compound 10] | – | – | – | – | – | – | – | – | – | – | – | – | Binding to FLNA (conclusion in words) [1]: bind well to FLNA; MOR agonist activity, FLNA-Binding Compound as Agonist 0.1 μM (preliminary study) (mu opiate receptor (MOR)): 163.1%; MOR agonist activity, FLNA-Binding Compound as Agonist 1 μM + βNFA (preliminary study) (mu opiate receptor (MOR)): 60.4%; MOR agonist activity, FLNA-Binding Compound as Agonist 1 μM (preliminary study) (mu opiate receptor (MOR)): 191.8%; MOR agonist activity (conclusion in words) (mu opiate receptor (MOR)): MOR agonists
